{"source": "patent US20020155106A1", "about": "(priority 2000, published 2002)", "key": {"[1]": {"target": "alpha-1-proteinase inhibitor (API) (Homo sapiens, UniProt P01009)", "sequence (P01009 25-418)": "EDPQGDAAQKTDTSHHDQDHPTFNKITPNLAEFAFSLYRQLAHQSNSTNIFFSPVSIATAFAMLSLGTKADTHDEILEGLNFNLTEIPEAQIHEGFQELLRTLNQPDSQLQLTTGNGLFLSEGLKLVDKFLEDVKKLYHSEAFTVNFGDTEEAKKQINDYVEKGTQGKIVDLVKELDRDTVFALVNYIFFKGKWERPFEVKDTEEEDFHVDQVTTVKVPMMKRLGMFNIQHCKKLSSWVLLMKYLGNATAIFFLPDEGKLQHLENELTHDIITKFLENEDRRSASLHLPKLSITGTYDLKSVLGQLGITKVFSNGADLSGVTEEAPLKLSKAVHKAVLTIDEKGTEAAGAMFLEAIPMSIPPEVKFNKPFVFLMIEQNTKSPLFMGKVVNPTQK", "format": "binding"}, "SV40": {"tested_on": "SV40", "format": "binding, simian virus 40"}, "Polio Virus": {"tested_on": "Polio Virus", "format": "binding, poliovirus"}, "PPV [2]": {"tested_on": "PPV", "format": "binding, porcine parvovirus"}, "PPV [3]": {"tested_on": "PPV", "format": "binding, porcine parvovirus", "remark": "listed apart in the source"}, "HAV [4]": {"tested_on": "HAV", "format": "binding, hepatitis A virus"}, "PRV [5]": {"tested_on": "PRV", "format": "binding, pseudorabies virus"}, "HAV [6]": {"tested_on": "HAV", "format": "binding, hepatitis A virus", "remark": "listed apart in the source"}, "PRV [7]": {"tested_on": "PRV", "format": "binding, pseudorabies virus", "conditions": "peptide resin"}, "HIV": {"tested_on": "HIV", "format": "binding, human immunodeficiency virus"}, "BVDV": {"tested_on": "BVDV", "format": "binding, bovine viral diarrhea virus"}}, "note": "Ends that are not written are not given here. amino resin = not defined here; spacer = not defined here", "data": [{"substance": "RDYDTD: Table 2 sample 2", "values": [{"measurement": "binding to API", "setting": "[1]", "result": "API-binding"}]}, {"substance": "FLLFQP: Table 1 sample 5", "values": [{"measurement": "Screen (positive bead, ligand identified for virus)", "setting": "SV40", "result": "SV40"}]}, {"substance": "APPRTV: Table 2 sample 5", "values": [{"measurement": "binding to API", "setting": "[1]", "result": "API-binding"}]}, {"substance": "FLLIDA: Table 1 sample 8", "values": [{"measurement": "Screen (positive bead, ligand identified for virus)", "setting": "Polio Virus", "result": "Polio"}]}, {"substance": "Acetyl-FLLPYK: N-acetylated FLLPYK on resin (Ac-FLLPYK)", "values": [{"measurement": "logs reduction (clearance) of PPV in column flow-through", "setting": "PPV [2]", "result": "no clearance"}]}, {"substance": "NFZQNT: Table 2 sample 7", "values": [{"measurement": "binding to API", "setting": "[1]", "result": "API-binding"}]}, {"substance": "amino-FLLP: truncated peptide on resin (on resin)", "values": [{"measurement": "logs reduction (clearance) of PPV in column flow-through", "setting": "PPV [2]", "result": "no significant clearance"}]}, {"substance": "SKNNAA: Table 2 sample 8", "values": [{"measurement": "binding to API", "setting": "[1]", "result": "API-binding"}]}, {"substance": "FLLYAK: also Table 4 sample 46", "values": [{"measurement": "binds PPV (sequences that bind to all three viruses)", "setting": "PPV [3]", "result": "bind"}, {"measurement": "binds HAV (sequences that bind to all three viruses)", "setting": "HAV [4]", "result": "bind"}, {"measurement": "binds PRV (sequences that bind to all three viruses)", "setting": "PRV [5]", "result": "bind"}]}, {"substance": "AQTFHD: Table 2 sample 1", "values": [{"measurement": "binding to API", "setting": "[1]", "result": "API-binding"}]}, {"substance": "VLYTNN: Table 2 sample 6", "values": [{"measurement": "binding to API", "setting": "[1]", "result": "API-binding"}]}, {"substance": "SDLRRL: Table 2 sample 4", "values": [{"measurement": "binding to API", "setting": "[1]", "result": "API-binding"}]}, {"substance": "LKRIEY: Table 2 sample 3", "values": [{"measurement": "binding to API", "setting": "[1]", "result": "API-binding"}]}, {"substance": "FLLPYK: consensus peptide synthesized onto amino resin with a spacer at the carboxy terminal (FLLPYK-{spacer-amino resin}; not fully specified; reading uncertain)", "values": [{"measurement": "logs reduction (clearance) of PPV in column flow-through", "setting": "PPV [2]", "result": "five"}, {"measurement": "binds HAV", "setting": "HAV [6]", "result": "binds"}, {"measurement": "binds PRV", "setting": "PRV [7]", "result": "binds"}, {"measurement": "binds HIV", "setting": "HIV", "result": "binds"}, {"measurement": "binds BVDV", "setting": "BVDV", "result": "binds"}]}]}
